Earlier results in publication PMC11007962, “First-in-human study of GFH018, a small molecule inhibitor of transforming growth factor-β receptor I inhibitor, in patients with advanced solid tumors” (BMC Cancer, 2024).

How the values were obtained:
[1] = design: method as in PMID 25488804, PMID 26309397; settings: consecutive regimens; cited from earlier work
pSMAD3 = tested on: pSMAD3; design: method as in preclinical studies (reference not given); settings: mouse H22 models, ref preclinical studies (reference not given), cited from earlier work
[2] = tested on: recurrent/metastatic nasopharyngeal carcinoma (R/M NPC); design: method as in doi:10.1200/JCO.2023.41.16_suppl.6026; settings: ongoing phase Ib/II study; cited from earlier work
[3] = tested on: TGF-β-induced SMAD3 phosphorylation; design: method as in doi:10.1158/1538-7445.AM2019-3072; settings: preclinical; cited from earlier work

**Q.** For Cc1cccc(-c2nn3c(c2-c2ccc4ncnn4c2/C=C/C(N)=O)CCC3)n1 [GFH018], which “cardiac findings in toxicology studies” value [1] is on record?
**A.** cardiac lesions occur

**Q.** What about the “effective concentration (efficacy with approximately 50% inhibition of pSMAD3)” value (pSMAD3; after the 1-h dose) of the same molecule?
**A.** 125 ng/ml

**Q.** What about the “inhibition of pSMAD3 at which efficacy was observed” value (pSMAD3; at 125 ng/ml after the 1-h dose) of the same molecule?
**A.** approximately 50%

**Q.** What about the “efficacy in combination with toripalimab” value [2] of the same molecule?
**A.** promising efficacy was shown

**Q.** What about the “effect on TGF-β-induced SMAD3 phosphorylation” value [3] of the same molecule?
**A.** ability to inhibit TGF-β-induced SMAD3 phosphorylation
